Residues, ends and D or L forms follow the SMILES beside them. *: point of attachment. Cbz = O=C(OCc1ccccc1)*
Columns and labels:
IκB = assay: Western blot of IκB level and phosphorylation; type: cell-based; settings: PC-3 cells, 10 μM; MCF7 cells
Method: (§1) Western blot analysis of total protein lysates was performed using antibodies against p53 (DO1) and against specific sites of phosphorylation in p53. […] HCT116 cells were treated for 30 minutes with 1 μM PS-341. PS-341 was washed off after 30 minutes and cells were re-incubated in drug free medium prior to analysis at 3 hours or 16 hours post-treatment. […] Proteasome activity was determined by measuring the absorbance of free AMC generated by cleavage of an AMC-fluorogenic peptide. The proteasome activity of untreated cells was set at 100%. […] Cell lysates were isolated at the indicated hours after treatment and used for western blotting. […]
(§2) Cells were lysed in RIPA buffer (25 mM Tris HCl, pH7.2, 125 mM NaCl, 1% NP40, 1% sodium deoxycholate, 1 mM EDTA) containing 1 mM PMSF (Sigma), 10 μg/ml of aprotinin (Sigma) and 10 μg/ml of leupeptin (Sigma). Protein concentrations were determined with BioRad Dc protein assay kit. […] The following antibodies were used: anti-p53—monoclonal mouse DO1 (Santa-Cruz), anti-p21—monoclonal mouse F-5 (Santa-Cruz), anti-mdm2—monoclonal mouse SMP14 (Santa-Cruz). p53 phosphorylation status was analyzed using phospho-p53 sampler kit from Cell signaling according to manufacturer's recommendations, anti-p65—(C20, Santa Cruz), anti-phospho-p65—(ser536, Cell Signaling), anti-IκBa—(C21, Santa Cruz), anti-p50—(NLS, Santa Cruz). […]

[1] = system: HT1080-sip53 and HT1080-siGFP cells; assay: Cell survival assay in isogenic cell pairs with anti-p53 or control siRNA; type: cell-based, human; settings: p53 plus vs minus cells; FIG. 4d
p53 = assay: Western blot of p53 phosphorylation status in RCC45 cells; type: cell-based; settings: 9AA 5 μM or dox 1 μM, 16 hours
Method: as §1, §2

[2] = system: RCC specimens and fragments of normal kidney; assay: p53-responsive lacZ reporter in ex vivo organ cultures; type: cell-based; settings: 24 hours, X-gal
Method: (§3) IC50% for each cell line and each drug was determined. Each point represents IC50% of particular cell line, which are grouped as follows: (i) black circles—RCC cell lines (ACHN, RCC9, RCC13, RCC29, RCC45, RCC54), (ii) red triangles—non-RCC cell lines (MCF7, HT1080, H1299, U20S, LNCaP, HCT116), (iii) green squares—normal kidney cells (NKE). […] 10^7 of ACHN cells were inoculated under the skin of nude mice. At the moment tumors achieved 5 mm in diameter QC administrations were started intraperitoneally, 50 mg/kg. 5FU (35 mg/kg) was used as a control. Tumor size was measured every other day and presented as a fold increase in tumor volume.
Fresh RCC specimens and fragments of normal kidney from the same patients were placed in short-term organ cultures in the media containing lentiviral vector carrying p53-responsive lacZ reporter (FIG. 10B) for 24 hours.

ACHN cells = assay: ACHN tumor xenograft growth; type: in vivo, nude mice
Method: as §3
(§4) NIH Swiss athymic nude, male mice, 5-6 weeks old were purchased from Harlan. 5×10^6 of tumor cells were inoculated into the flank of mice in 100 μL of PBS. […] As vehicle, 50% DMSO solution in PBS was used. Tumor size was measured in three dimensions every other day.

RCC45ConALacZ cells = assay: p53-responsive reporter (ConALacZ) β-galactosidase assay in RCC45 cells; type: cell-based; settings: compared with doxorubicin
Method: 2×10^4 of RCC45ConALacZ cells were plated into wells of 96 well plates in 200 μL of phenol-red free RPMI medium with standard additives. After overnight incubation library of chemical compounds in DMSO solution together with controls was added with the help of plastic bacterial replicators (200+/−100 nL). Final concentration of compounds was around 5 μg/ml. Negative control was DMSO, positive control was doxorubicin solution (0.2, 0.6 and 2 μM). After 24 hours lysis buffer with ONPG was added directly to the medium on ice. After 3 hours of incubation at 37° C., β-galactosidase activity was estimated by reading absorbance values Wallack 1420 plate reader (Perkin Elmer) at λ=430 nm.
For cotransfection set-up, 2×10^5 cells were plated into 6 well plates and, after overnight incubation, transfected with Lipofectamin Plus reagent (Gibco BRL) with 0.5 μg of reporter plasmids (p21-ConALuc or pNF-κBLuc) in combination with different concentrations of p53, Arf, Ss-IκB, or siHDM2 expressing plasmids. […] Luciferase activity and β-galactosidase activity was measured in lysates prepared 48 hours after transfection with Cell Lysis Buffer (Promega) by luciferase assay system (Promega) or β-galactosidase enzyme system (Promega). Luminometric and colorimetric reactions were read on the Wallack 1420 plate reader (Perkin Elmer). […]

HT1080ConALuC tumors = assay: p53-dependent luciferase reporter in xenograft tumors; type: in vivo; settings: intraperitoneal; 24 hours; nude mice
Method: (§5) HT1080ConALuC cells were inoculated into two flanks of nude mice. When tumors reach 5 mm in diameter, mice were injected intraperitoneally with indicated concentrations of the drugs (mg/kg, 3 mice per group). After 24 hours mice were sacrificed, tumors were isolated, lysed in Reporter Lysis Reagent (Promega) and luciferase activity was measured in […] of tumor proteins. Bars represent fold of induction of luciferase activity in tumors, treated with drugs over luciferase activity in tumors treated with vehicle. FIG. 5B: HT1080sip53 or HT1080siGFP cells were inoculated in the left and right flank of nude mice respectively.
as §4
The in vivo anti-tumor effects of aminoacridines were tested in a xenograft tumor model using HT1080 cells differing in their p53 status and carrying p53 luciferase reporters grown subcutaneously in nude mice.

HT1080siGFP cells = assay: Xenograft tumor growth, p53-expressing tumors; type: in vivo, nude mice; settings: 50 mg/kg i.p. daily; 5FU 35 mg/kg for comparison
Method: as §5, §4

HT1080sip53 cells = assay: Xenograft tumor growth, p53-deficient tumors; type: in vivo, nude mice; settings: 50 mg/kg i.p. daily
Method: as §5, §4

[3] = system: PC3 p53-negative or DU145 cells comprising mutant p53; assay: Prostate cancer xenograft tumor growth; type: in vivo, mice; settings: 100 mg/kg by oral gavage; control sterile water
Source text: Mice were also inoculated with 2×10^6 human prostate cancer cells using PC3 p53-negative or with DU145 cells comprising mutant p53. […] Tumor growth was reduced by ˜50% in quinacrine-treated mice.

H1299-NF-kBLuc cells = assay: NF-κB-responsive luciferase reporter assay; type: cell-based; settings: basal and TNF-induced (10 ng/ml)
RCC cell lines = assay: Restoration of p53-mediated transactivation in RCC cell lines; type: cell-based; settings: data not shown
[4] = system: RCC54 and RCC45, normal kidney epithelial cells; assay: Sensitization to TRAIL, methylene blue assay; type: cell-based; settings: RCC54, RCC45 vs normal kidney epithelial cells; combination with TRAIL

CC(C)C[C@@H](C=O)NC(=O)[C@H](CC(C)C)NC(=O)[C@H](CC(C)C)NC(=O)OCc1ccccc1 [MG132] (Cbz-Leu-Leu-Leu-aldehyde)
level of IκB (IκB): caused accumulation of phosphorylated forms of IkB

CC(=O)O[C@H]1C(=O)[C@@]2(C)[C@H]([C@H](OC(=O)c3ccccc3)[C@]3(O)C[C@H](OC(=O)[C@H](O)[C@@H](NC(=O)c4ccccc4)c4ccccc4)C(C)=C1C3(C)C)[C@]1(OC(C)=O)CO[C@@H]1C[C@@H]2O [paclitaxel]
toxicity found to be p53-dependent (none = not p53-dependent) [1]: none

CC[C@@]1(O)C(=O)OCc2c1cc1n(c2=O)Cc2cc3ccccc3nc2-1 [camptothecin]
toxicity found to be p53-dependent (none = not p53-dependent) [1]: none

CC[C@]1(O)C[C@@H]2CN(CCc3c([nH]c4ccccc34)[C@@](C(=O)OC)(c3cc4c(cc3OC)N(C)[C@H]3[C@@](O)(C(=O)OC)[C@H](OC(C)=O)[C@]5(CC)C=CCN6CC[C@]43[C@@H]65)C2)C1 [vinblastine]
toxicity found to be p53-dependent (none = not p53-dependent) [1]: none

COc1cccc2c1C(=O)c1c(O)c3c(c(O)c1C2=O)C[C@@](O)(C(=O)CO)C[C@@H]3O[C@H]1C[C@H](N)[C@H](O)[C@H](C)O1 [doxorubicin]
toxicity found to be p53-dependent (none = not p53-dependent) [1]: none | p53 phosphorylation status (p53): did induce phosphorylation of p53 | expression of p53-responsive reporter in tumor samples [2]: not

O=c1[nH]cc(F)c(=O)[nH]1 [5FU, 5-fluorouracil]
weight loss (ACHN cells; 5FU 35 mg/kg): up to 20%

CCN(CC)CCCC(C)Nc1c2ccc(Cl)cc2nc2ccc(OC)cc12 (stereo not shown) [quinacrine, Quinacrine]
p53 reactivation / reporter induction (in words) (RCC45ConALacZ cells): intermediate level of activity | activation of p53 in tumors (HT1080ConALuC tumors): capable of activating p53 in tumors | growth of p53-expressing tumors (HT1080siGFP cells): inhibited growth of p53-expressing tumors to the same extend as 5FU | growth of p53-deficient tumors (HT1080sip53 cells): no effect | reduction of tumor growth [3]: ~50% | NF-κB-responsive reporter activity (H1299-NF-kBLuc cells): inhibited basal and TNF-induced activity of the reporter | RCC cell lines with restored p53-mediated transactivation (RCC cell lines): 9 out of 10 | expression of p53-responsive reporter in tumor samples [2]: induced expression of the p53-responsive reporter | TRAIL resistance [4]: inverted TRAIL resistance of tumor but not normal kidney cells | weight loss (in words) (ACHN cells; 50 mg/kg intraperitoneally): without significant weight loss | inhibition of tumor growth (ACHN cells; ACHN s.c. in nude mice, 50 mg/kg intraperitoneally): about 50%
